Results taken from patent US4749694A, “Novel lysine esters used as absorption” (Merck & Co., Inc., priority 1984, dated 1988).
Each block holds one compound with its values, some of them ahead of it.

Experiments:
[1] = Absorption of sodium cefoxitin with or without alcohol-lysine esters in rats, percent bioavailability versus intravenous (Example 6); details: for bioavailability: rat, serum, 2.5 mg; for effect as absorption promoter at 5 mg/dose (in words): 5 mg/dose level, comparison with hexadecyl lysinate
Protocol: Blood samples were collected, sodium cefoxitin assayed, and "area-under-the-curve"* calculated. Percent bioavailability was determined versus intravenous administration. Each animal received 2.5 mg sodium cefoxitin ±5.0 mg alcohol-lysine ester. From 3 to 12 animals were used for each compound.

[2] = Absorption of sodium cefoxitin with varying concentrations of hexadecyl lysinate in rats, percent bioavailability (Example 9); assay type: in vivo, rat; details: for bioavailability: rat, serum, 2.5 mg, pH 6, rats, hexadecyl lysinate 0 mg/body, 2.5 mg sodium cefoxitin, pH 6
Protocol: Percent bioavailability was determined versus intravenous administration. Each animal received 2.5 mg sodium cefoxitin with varying amounts of hexadecyl lysinate.

[3] = Absorption of cytarabine with or without hexadecyl lysinate in rats, percent bioavailability versus intravenous (Example 8); details: rat, in vivo, 2.5 mg, pH 6, rats, 2.5 mg cytarabine ± 5.0 mg hexadecyl lysinate, 250 μl, pH 6, versus intravenous
Protocol: The absorption of cytarabine, an antineoplastic and antiviral agent, was tested in rats employing aqueous formulations of cytarabine and hexadecyl lysinate. The compounds were administered in a total volume of 250 μl at pH 6. Both rectal and duodenal sites in the intestine were tested. Blood samples were collected, cytarabine assayed, and "area-under-the-curve"* calculated. Percent bioavailability was determined versus intravenous administration. Each animal received 2.5 mg cytarabine ±5.0 mg hexadecyl lysinate. Three animals were used for each experiment.

bioavailability ([1]; intestinal absorption of sodium cefoxitin, with 5 mg/dose promoter (hexadecyl lysinate) or without): 1% | bioavailability ([1]; pH 7, Percent Cefoxitin Bioavailability (mean ± SE), Duodenal, rats, 2.5 mg sodium cefoxitin ± 5.0 mg alcohol-lysine ester, 250 μl, pH 7, versus intravenous): 1% | bioavailability ([1]; pH 7, Percent Cefoxitin Bioavailability (mean ± SE), Rectal, rats, 2.5 mg sodium cefoxitin ± 5.0 mg alcohol-lysine ester, 250 μl, pH 7, versus intravenous): 2 ± 1.1% | bioavailability ([2]; duodenal, read-out: Percent Cefoxitin Bioavailability (mean ± SE), Duodenal): 1% | bioavailability ([2]; rectal, read-out: Percent Cefoxitin Bioavailability (mean ± SE), Rectal): 2 ± 1.1%
SMILES: CO[C@@]1(NC(=O)Cc2cccs2)C(=O)N2C(C(=O)O)=C(COC(N)=O)CS[C@@H]21 [Cefoxitin]

SMILES: Nc1ccn([C@@H]2O[C@H](CO)[C@@H](O)[C@@H]2O)c(=O)n1 [Cytarabine]
bioavailability ([3]; duodenal, read-out: Percent Cytarabine Bioavailability (mean ± SE), Duodenal): 5% | bioavailability ([3]; rectal, read-out: Percent Cytarabine Bioavailability (mean ± SE), Rectal): 6 ± 1.7%

SMILES: O=C(O)CN(CCN(CC(=O)O)CC(=O)O)CC(=O)O [EDTA]
effect as absorption promoter at 5 mg/dose (in words) [1]: ineffective

concentration dependence of absorption promoting effect (in words) ([2]; Example 9): act in a concentration dependent manner
SMILES: CCCCCCCCCCCCCCCCOC(=O)[C@@H](N)CCCCN [Hexadecyl lysinate]

SMILES: O=C(O)c1ccccc1O [salicylate]
effect as absorption promoter at 5 mg/dose (in words) [1]: ineffective
